Experimental data taken from US20050209278A1, “Piperidinyl- and piperazinyl-sulfonylmethyl hydroxamic acids and their use as protease inhibitors” (priority 2002, published 2005).
Where two headings read alike, the source gives them in different places.

How the values were obtained:
MMP-2 = molecular target: T1, MMP-2 (Homo sapiens, UniProt P08253); assay: In vitro MMP inhibition, Ki determination (fluorogenic substrate II); format: biochemical; settings: read-out: MMP-2 Ki
T1 construct: made in house; host or cells: MMP-2-transfected p2AHT2 cells
T1 sequence (P08253 110-660): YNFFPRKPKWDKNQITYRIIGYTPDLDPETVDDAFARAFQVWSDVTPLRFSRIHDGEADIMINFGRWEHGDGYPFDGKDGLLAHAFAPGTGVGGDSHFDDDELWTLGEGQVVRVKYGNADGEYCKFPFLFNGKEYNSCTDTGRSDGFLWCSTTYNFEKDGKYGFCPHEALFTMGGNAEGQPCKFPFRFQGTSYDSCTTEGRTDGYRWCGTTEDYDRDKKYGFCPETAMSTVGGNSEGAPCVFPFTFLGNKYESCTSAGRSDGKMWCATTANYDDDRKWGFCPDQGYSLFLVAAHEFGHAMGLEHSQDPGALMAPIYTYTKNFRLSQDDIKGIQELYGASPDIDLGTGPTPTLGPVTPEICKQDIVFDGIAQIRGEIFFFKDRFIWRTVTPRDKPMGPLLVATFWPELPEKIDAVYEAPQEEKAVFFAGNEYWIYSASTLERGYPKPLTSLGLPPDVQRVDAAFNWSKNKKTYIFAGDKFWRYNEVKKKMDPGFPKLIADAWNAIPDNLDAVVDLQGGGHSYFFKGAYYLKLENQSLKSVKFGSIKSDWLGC

MMP-9 = molecular target: T2, MMP-9 (Homo sapiens, UniProt P14780); assay: as above; format: biochemical
T2 construct: made in house; host or cells: MMP-9-transfected HT1080 cells (spent media)
In short: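 HT1080-derived MMP-9, activated with APMA, trypsin or MMP-3, incubated 1 hr at room temperature with inhibitor and 4 μM fluorogenic substrate II (at or below Km) in pH 7.5 Tris/NaCl/CaCl2 buffer; ex 330/em 420 nm. Ki from Morrison-equation regression, without substrate correction.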

T2 sequence (P14780 107-707 limits assumed): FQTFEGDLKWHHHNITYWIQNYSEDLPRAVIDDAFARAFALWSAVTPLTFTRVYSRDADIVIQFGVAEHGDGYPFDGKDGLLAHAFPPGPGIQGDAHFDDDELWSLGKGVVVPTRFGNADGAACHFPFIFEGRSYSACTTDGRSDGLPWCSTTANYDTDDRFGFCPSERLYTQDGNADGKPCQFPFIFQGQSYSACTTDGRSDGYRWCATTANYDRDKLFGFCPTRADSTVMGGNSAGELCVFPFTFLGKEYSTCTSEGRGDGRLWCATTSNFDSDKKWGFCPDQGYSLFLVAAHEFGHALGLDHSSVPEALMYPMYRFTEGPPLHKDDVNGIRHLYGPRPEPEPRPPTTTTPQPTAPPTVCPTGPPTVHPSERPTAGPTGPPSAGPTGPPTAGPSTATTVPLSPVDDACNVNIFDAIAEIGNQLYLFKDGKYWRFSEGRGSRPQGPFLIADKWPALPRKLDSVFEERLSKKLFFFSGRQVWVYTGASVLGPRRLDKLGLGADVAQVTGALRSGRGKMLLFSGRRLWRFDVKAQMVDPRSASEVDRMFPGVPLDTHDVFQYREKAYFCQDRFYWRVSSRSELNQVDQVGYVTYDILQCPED

SMILES | Ki (MMP-2; value outside parentheses) | Ki (MMP-9; value outside parentheses) | Ki (MMP-2; value not in parenthesis) | Ki (MMP-9; value not in parenthesis)
CCCCOc1ccc(N2CCN(S(=O)(=O)C3(C(=O)NO)CCN(C(=O)C(C)(C)C)CC3)CC2)cc1 [Example 267] | 0.836 nM | 2.54 nM | – | –
O=C(NO)C1(S(=O)(=O)N2CCN(c3ccc(SC(F)(F)F)cc3)CC2)CCS(=O)(=O)CC1 [Example 258] | 4.06 nM | 457 nM | – | –
CCCCOc1ccc(N2CCN(S(=O)(=O)C3(C(=O)NO)CCN(C(=O)CO)CC3)CC2)cc1 [Example 271] | 0.668 nM | 1.49 nM | – | –
CCc1ccc(N2CCN(S(=O)(=O)C3(C(=O)NO)CCCC3)CC2)nc1 [Example 261] | 0.276 nM | 1.53 nM | – | –
CCCCc1ccc(C2CCN(S(=O)(=O)C3(C(=O)NO)CCN(CCOC)CC3)CC2)s1 [Example 55] | – | – | 2.2 nM | 0.35 nM
CCCCOc1ccc(N2CCN(S(=O)(=O)C3(C(=O)NO)CCOCC3)CC2)nc1 [Example 100] | – | – | 0.13 nM | 0.3 nM
O=C(NO)C1(S(=O)(=O)N2CCN(c3cccc(C(F)(F)F)c3)CC2)CCOCC1 [Example 82] | – | – | 8.74 nM | 249 nM
CCCCOc1ccc(N2CCN(S(=O)(=O)C3(C(=O)NO)CCN(c4ccc(Cl)c(Cl)c4)CC3)CC2)cc1 [Example 250] | – | – | 29.9 nM | 73.9 nM
CCCCOc1ccc(N2CCN(S(=O)(=O)C3(C(=O)NO)CCN(CCOC)CC3)CC2)c(F)c1 [Example 284] | 0.81 nM | 0.99 nM | – | –
O=C(NO)C1(S(=O)(=O)N2CCC(c3ccc(-c4ccc(F)cc4F)cn3)CC2)CCOCC1 [Example 308] | 6.36 nM | 11.3 nM | – | –
CCCCOc1ccc(N2CCN(S(=O)(=O)C3(C(=O)NO)CCN(C(=O)OCC(C)(C)C)CC3)CC2)cc1 [Example 97] | – | – | 6.69 nM | 21.9 nM
CCCCOc1ccc(N2CCN(S(=O)(=O)C3(C(=O)NO)CCN(c4ccc(C)cc4)CC3)CC2)cc1 [Example 295] | 8.76 nM | 17.1 nM | – | –
CCCCOc1ccc(N2CCN(S(=O)(=O)C3(C(=O)NO)CCN(c4ccc(C(F)(F)F)cn4)CC3)CC2)cc1 [Example 257] | 9.64 nM | 37 nM | – | –
CCCCOc1ccc(N2CCN(S(=O)(=O)C3(C(=O)NO)CCN(Cc4ccccc4)CC3)CC2)cc1F [Example 285] | 1.55 nM | 9.83 nM | – | –
CCCCCc1ccc(N2CCN(S(=O)(=O)C3(C(=O)NO)CCN(c4ncccn4)CC3)CC2)nc1 [Example 95] | – | – | 0.64 nM | 0.99 nM
O=C(NO)C1(S(=O)(=O)N2CCN(c3ccc(C(F)(F)F)cn3)CC2)CCOCC1 [Example 94] | – | – | 0.66 nM | 14.3 nM
CCc1ccc(N2CCN(S(=O)(=O)C3(C(=O)NO)CCCCC3)CC2)nc1 [Example 263] | 0.188 nM | 0.634 nM | – | –
CCCCOc1ccc(N2CCN(S(=O)(=O)C3(C(=O)NO)CCN(c4ccc(Cl)nn4)CC3)CC2)cc1 [Example 281] | 0.769 nM | 2.16 nM | – | –
COCCN1CCC(C(=O)NO)(S(=O)(=O)N2CCC(c3ccc(CCC(F)(F)F)cc3)CC2)CC1 [Example 309] | 0.328 nM | 0.102 nM | – | –
CCCCOc1ccc(N2CCN(S(=O)(=O)C3(C(=O)NO)Cc4ccccc4C3)CC2)nc1 [Example 85] | – | – | 0.64 nM | 1.17 nM
CCCCc1ccc(N2CCN(S(=O)(=O)C3(C(=O)NO)CCN(c4cccnc4)CC3)CC2)nc1 [Example 96] | – | – | 0.2 nM | 0.21 nM
CCCCOc1ccc(N2CCN(S(=O)(=O)C3(C(=O)NO)CCN(C4CC4)CC3)CC2)cc1 [Example 301] | 0.88 nM | 9.11 nM | – | –
COCCN1CCC(C(=O)NO)(S(=O)(=O)N2CCC(c3ccc(CCC(F)(F)C(F)(F)F)cc3)CC2)CC1 [Example 312] | 0.52 nM | 0.24 nM | – | –
CCCCOc1ccc(N2CCN(S(=O)(=O)C3(C(=O)NO)CCN(c4nc5ccccc5s4)CC3)CC2)cc1 [Example 93] | – | – | 6.92 nM | 60.1 nM

SMILES | Ki (MMP-2; value outside parentheses) | Ki (MMP-9; value outside parentheses) | Ki (MMP-2; value not in parenthesis) | Ki (MMP-9; value not in parenthesis)
COCCN1CCC(C(=O)NO)(S(=O)(=O)N2CCN(c3ccc(Oc4ccccc4)cc3)CC2)CC1 [Example 287] | 9.44 nM | 13.9 nM | – | –
C#CCN1CCC(C(=O)NO)(S(=O)(=O)N2CCN(c3ccc(OCCCC)cc3)CC2)CC1 [Example 303] | 1.68 nM | 1.48 nM | – | –
CCCCOc1ccc(N2CCN(S(=O)(=O)C3(C(=O)NO)CCN(C(=O)c4ccncc4)CC3)CC2)cc1 [Example 259] | 0.468 nM | 1.35 nM | – | –
CCCCOc1ccc(N2CCN(S(=O)(=O)C3(C(=O)NO)CCN(c4ccc(Cl)cc4)CC3)CC2)cc1 [Example 251] | 22.5 nM | 57.4 nM | – | –
O=C(NO)C1(S(=O)(=O)N2CCC(c3ccc(Br)cn3)CC2)CCOCC1 [Example 306] | 0.444 nM | 1.03 nM | – | –
O=C(NO)C1(S(=O)(=O)N2CCN(c3ccc(OC4CCC4)c(F)c3)CC2)CCOCC1 [Example 73] | – | – | 2.2 nM | 7.97 nM
CCCCOc1ccc(N2CCN(S(=O)(=O)C3(C(=O)NO)CCN(C(=O)N(C)C)CC3)CC2)cc1 [Example 254] | 0.309 nM | 0.63 nM | – | –
CCCCOc1ccc(N2CCN(S(=O)(=O)C3(C(=O)NO)CCN(C(=O)c4ccccn4)CC3)CC2)cc1 [Example 277] | 0.42 nM | 0.95 nM | – | –
CCCCOc1ccc(N2CCN(S(=O)(=O)C3(C(=O)NO)CCN(c4ccc(C)cc4)CC3)CC2)cc1F [Example 296] | 6.73 nM | 47.6 nM | – | –
CCCCc1ccc(N2CCN(S(=O)(=O)C3(C(=O)NO)CCN(CCOC)CC3)CC2)nc1 [Example 270] | 0.176 nM | 0.205 nM | – | –
CCCCOc1ccc(N2CCN(S(=O)(=O)C3(C(=O)NO)CCNCC3)CC2)cc1F [Example 286] | 5.17 nM | 22.3 nM | – | –
CCCCOc1ccc(N2CCN(S(=O)(=O)C3(C(=O)NO)CCN(C(=O)c4cccnc4)CC3)CC2)cc1 [Example 266] | 0.422 nM | 0.957 nM | – | –
CCCCOc1ccc(N2CCN(S(=O)(=O)C3(C(=O)NO)CCN(c4ccccc4)CC3)CC2)cc1 [Example 264] | 8.23 nM | 20.4 nM | – | –
CCCCOc1ccc(N2CCN(S(=O)(=O)C3(C(=O)NO)CCN(C(N)=O)CC3)CC2)cc1 [Example 253] | 0.761 nM | 1.57 nM | – | –
CCCCOc1ccc(N2CCN(S(=O)(=O)C3(C(=O)NO)CCN(C=O)CC3)CC2)cc1 [Example 269] | 0.436 nM | 0.953 nM | – | –
CCCCOc1ccc(N2CCN(S(=O)(=O)C3(C(=O)NO)CCN(C(=O)CN)CC3)CC2)cc1 [Example 292] | 1.74 nM | 3.51 nM | – | –
CC(C)CCOc1ccc(N2CCN(S(=O)(=O)C3(C(=O)NO)CCOCC3)CC2)cc1 [Example 279] | 1.11 nM | 3.07 nM | – | –
O=C(NO)C1(S(=O)(=O)N2CCN(c3ccc(OCc4ccccc4)cn3)CC2)CCOCC1 [Example 74] | – | – | 0.5 nM | 4.8 nM
CS(=O)(=O)c1ccc(N2CCN(S(=O)(=O)C3(C(=O)NO)CCOCC3)CC2)cc1 [Example 300] | 67.1 nM | 142 nM | – | –
O=C(NO)C1(S(=O)(=O)N2CCN(c3ccc(COCC(F)(F)F)cc3)CC2)CCOCC1 [Example 72] | – | – | 2.44 nM | 2.86 nM
CCCCc1ccc(C2CCN(S(=O)(=O)C3(C(=O)NO)CCOCC3)CC2)nc1 [Example 307] | 0.505 nM | – | – | –
CCCCOc1ccc(N2CCN(S(=O)(=O)C3(C(=O)NO)CCN(Cc4cccnc4)CC3)CC2)cc1F [Example 293] | 0.486 nM | 2.21 nM | – | –
O=C(NO)C1(S(=O)(=O)N2CCN(c3ccc(OCCCCF)cc3)CC2)CCOCC1 [Example 89] | – | – | 0.49 nM | 2.23 nM
